Patent US11033569B2, “Compounds,Compositions, and methods for the treatment of disease” (Sperovie Biosciences, Inc., priority 2016, dated 2021)

Columns and labels:
[1] = test system: panel of normal cell lines; assay: Cytotoxicity in a panel of normal cell lines; type: cell-based
[2] = test system: STING-R238A and STING-Y167A; assay: STING loss-of-function mutants, STING-dependent IFN response; type: cell-based
[3] = test system: mouse lymphoma cell line A20; assay: Apoptosis in mouse lymphoma cell line A20; type: cell-based; settings: A20 cells
[4] = test system: A20 mouse B cell lymphoma tumor cells; assay: Apoptosis-related genes and ISGs in A20 mouse B cell lymphoma tumor cells; type: cell-based; settings: compared with 2′3′-cGAMP
[5] = test system: IRF-type I and type III IFN response; assay: IRF-type I and type III IFN response; type: cell-based
[6] = Oral maximum tolerated dose study in BALB/c mice; type: in vivo
Method: In order to investigate the maximum tolerated dosage of orally administered compounds, 15 female BALB/c mice between 7-10 weeks old were split into three treatment groups. Each group was administered either Cmd 1 or vehicle orally, according to the schedule outlined in Table 5 below. Cmd 1 was provided at 10 mL/kg (0.200 mL/20 g mouse).

[7] = test system: human natural killer (NK) cells; assay: Human natural killer (NK) cell activation; type: cell-based
[8] = test system: mouse A20 B cell lymphoma tumor cells; assay: Inhibition of mouse A20 B cell lymphoma tumor cells; settings: FIGS. 48A-48D
NF-κβ-luc reporter = NF-κβ-luc reporter activation in HEK293 (SZ14) cells, screen for STING agonists; type: cell-based; settings: digitonin buffer, 5 hours, read-out: NF-KB EC50
Method: (§1) ISG54 or NF-κβ activity was determined using the Steady-glo buffer system (Promega), and are expressed as EC50 values summarized in Table 3 below. […] This calculation is applicable for compounds with enzyme inhibition activity, as the baseline for an untreated sample may be set at 100% enzymatic activity, and therefore % inhibition is evaluated based on this 100% maximal basis. For these studies, the EC50 value relates to the concentration required to achieve a value 50% activity level above the untreated sample set at 0%.
(§2) Data are shown as fold induction over cells that received DMSO (compound carrier) alone as the mean, +/−standard deviation of duplicate wells per stimulant.

ISG54 ISRE-luc reporter = ISG54 ISRE-luc reporter activation in HEK293 (SZ14) cells, screen for STING agonists; type: cell-based; settings: digitonin buffer, 5 hours, read-out: IRF EC50
Method: as §1, §2

THP1 cells = assay: Type III IFN (IL-29) production in THP1 cells (ELISA); type: cell-based; settings: 21 hrs
Method: Level of IL-29 in culture supernatant was determined using ELISA. Results shown are the average±standard deviation of duplicate wells.

[9] = 60 mg/kg po bid x 10 (first day 1 dose), n=5
[10] = oral, once daily or twice daily up to 60 mgkg/day

CCCCCCCCCCOc1ccc(C(=O)Oc2ccc(CSP3(=O)OC[C@H]4O[C@@H](n5cnc6c(N)ncnc65)[C@H](F)[C@@H]4OP(=O)(O)OC[C@H]4O[C@@H](n5ccc(=O)[nH]c5=O)[C@H](F)[C@@H]4O3)cc2)cc1.N (some centres unmarked) [Cmd 1]
cytotoxicity [1]: non-cytotoxic | dependence of STING activation on residues R238 and Y167 [2]: critical | apoptosis [3]: induces apoptosis | BAX/BCL2 ratio [4]: higher BAX/BCL2 ratio | IRF-type I and type III IFN response [5]: strongly activates | NTR [6, 9]: 0 | NTRm [6, 9]: 0 | TR [6, 9]: 0 | BW Nadir ([6]; 60 mg/kg po bid x 10 (first day 1 dose), nadir day (11)): −3.6% | NTR ([6]; 60 mg/kg po qd x 10, n=5): 0 | NTRm ([6]; 60 mg/kg po qd x 10, n=5): 0 | TR ([6]; 60 mg/kg po qd x 10, n=5): 0 | adverse clinical signs [6, 10]: no adverse clinical signs | tolerability [6, 10]: well tolerated | NK cell activation [7]: activates human natural killer (NK) cells | IFN-γ production ([7]; human NK cells): induces IFN-γ production | inhibition of tumor cells [8]: inhibits mouse A20 B cell lymphoma tumor cells | EC50 (NF-κβ-luc reporter): 50 to 500 nM | EC50 (ISG54 ISRE-luc reporter): < 50 nM | type III interferon (IL-29) production (THP1 cells): induce type III interferon (IL-29) production
